Laboratory results published in PubChem BioAssay (NCI).
“And” between values parts separate entries of the source, which are not always exact repeats. Equal entries are not always repeated.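 In this assay, cells in 96-well plates receive the compound at five concentrations for 48 hours. Endpoints are linearly interpolated between the surrounding concentrations. Here, GI50 denotes the concentration required for 50% inhibition of growth. TGI denotes the concentration required for complete inhibition of growth.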 Where a SMILES comes first, the peptide text is derived from it. The star is where a group is joined. Boc = CC(C)(C)OC(=O)*; Bn = c1ccc(C*)cc1

Assays:
Experiment in all cases: NCI-60 cell line screen, 48 h
SK-MEL-2 melanoma = system: SK-MEL-2 melanoma
DU-145 prostate = system: DU-145 prostate
PC-3 prostate = system: PC-3 prostate
OVCAR-3 ovarian = system: OVCAR-3 ovarian
U251 CNS = system: U251 CNS
HOP-92 NSCLC = system: HOP-92 NSCLC
HCC-2998 colon = system: HCC-2998 colon
CCRF-CEM leukemia = system: CCRF-CEM leukemia
SF-268 CNS = system: SF-268 CNS
MDA-MB-231 breast = system: MDA-MB-231 breast
HT29 colon = system: HT29 colon
SNB-19 CNS = system: SNB-19 CNS
SK-MEL-5 melanoma = system: SK-MEL-5 melanoma
CAKI-1 renal = system: CAKI-1 renal

Structure (SMILES)	TGI (SK-MEL-2 melanoma)	TGI (DU-145 prostate)	TGI (PC-3 prostate)	TGI (OVCAR-3 ovarian)	TGI (U251 CNS)	TGI (HOP-92 NSCLC)	TGI (HCC-2998 colon)	TGI (CCRF-CEM leukemia)	TGI (SF-268 CNS)	TGI (MDA-MB-231 breast)	TGI (HT29 colon)	TGI (SNB-19 CNS)	TGI (SK-MEL-5 melanoma)	TGI (CAKI-1 renal)	GI50 (PC-3 prostate)	GI50 (OVCAR-3 ovarian)	GI50 (HCC-2998 colon)	GI50 (SK-MEL-5 melanoma)	GI50 (CCRF-CEM leukemia)
CC(=O)Oc1ccc2cc(-c3ccc(OC(C)=O)c(OC(C)=O)c3)c(=O)oc2c1	> 100 µM	> 100 µM	> 100 µM	> 100 µM	> 100 µM	95.2 µM	> 100 µM	> 100 µM	> 100 µM	> 100 µM	> 100 µM	> 100 µM							
CCCCCCCCCCOCCOCCOCCOCCCCC(O)CCCCCCCC1=C[C@H](C)OC1=O (stereo not given in full)	25 µM	41.3 µM	20.9 µM	33.8 µM	23.5 µM	29.6 µM	27 µM	51.1 µM	22.9 µM	30.8 µM	24.4 µM	27.2 µM	22.2 µM	32.2 µM					
COC(=O)/N=[N+](\[O-])C(c1ccccc1)c1ccccc1	> 100 µM	> 100 µM	> 100 µM	> 100 µM	> 100 µM		> 100 µM	> 100 µM	> 100 µM	> 100 µM	> 100 µM	> 100 µM	> 100 µM	> 100 µM					
CC1=CC(=O)N(n2c(-c3ccccc3)n[nH]c2=O)C1=O	> 100 µM	> 100 µM	> 100 µM	> 100 µM	> 100 µM		> 100 µM	> 100 µM	> 100 µM	> 100 µM	> 100 µM	> 100 µM	> 100 µM	> 100 µM					
CN(C)c1ccc(/C=C(\NC(=O)c2ccccc2)C(=O)Nc2cccc(C(=O)NCCCO)c2)cc1	> 100 µM	> 100 µM	> 100 µM	> 100 µM	> 100 µM	> 100 µM	> 100 µM	> 100 µM	> 100 µM	> 100 µM	> 100 µM	> 100 µM	> 100 µM	> 100 µM					
CC1=CC(=O)N(n2c(Cc3ccc(Cl)cc3)n[nH]c2=O)C1=O	> 100 µM	> 100 µM	> 100 µM	> 100 µM	> 100 µM	67.7 µM	> 100 µM	29.3 µM	> 100 µM	> 100 µM	55.3 µM	> 100 µM	> 100 µM	> 100 µM					
CN(C)CC1CCC/C(=C\c2ccccc2)C1=O (stereo not given)	18.9 µM	28.6 µM	21 µM	3.75 µM	28.7 µM	8.26 µM	29 µM	> 100 µM	7.44 µM	4.18 µM	3.18 µM	30.5 µM	21.4 µM	3.2 µM					
O=C(Nc1cccc(C(=O)NCCCO)c1)/C(=C/c1ccccc1)NC(=O)c1ccccc1	> 100 µM	> 100 µM	> 100 µM	> 100 µM	> 100 µM	> 100 µM	> 100 µM	> 100 µM	> 100 µM	> 100 µM	> 100 µM	> 100 µM	> 100 µM	> 100 µM					
Cc1ccsc1C(=S)Nc1ccc(Cl)c(/C=N/OC(C)C)c1	> 100 µM	> 100 µM	> 100 µM	> 100 µM	> 100 µM	> 100 µM	64.3 µM	> 100 µM	> 100 µM	> 100 µM	> 100 µM	> 100 µM	75.4 µM	> 100 µM					
O=S(=O)(c1cc(Cl)ccc1Cl)N1CCN(c2cccc(Cl)c2)CC1		> 100 µM	> 100 µM	> 100 µM	> 100 µM	> 100 µM	> 100 µM	> 100 µM	> 100 µM	> 100 µM	> 100 µM	> 100 µM	> 100 µM	> 100 µM					
CNC(=O)C(CC(C)C)NC(=O)C(C)NC(=O)C(Cc1ccc(OCc2ccccc2)cc1)NC(=O)C(COCc1ccccc1)NC(=O)OC(C)(C)C (stereo not given) (Boc-S(Bn)Y(Bn)AL-NHMe; configuration not given here)		> 100 µM	58.4 µM and 18.6 µM	> 100 µM and 44 µM	> 41.3 µM and 31.7 µM	> 80.8 µM and 51.7 µM	> 87.3 µM and 9.17 µM	18.9 µM and 39.6 µM	53.8 µM and 46.5 µM	35.7 µM and 36 µM	> 38.9 µM and 30.9 µM	> 58 µM and 36.9 µM	> 100 µM and 23.9 µM	> 100 µM	19.2 µM and 2.53 µM	42.1 µM and 19.1 µM	29.3 µM and 3.13 µM	47.9 µM and 11.7 µM	4.39 µM and 10.5 µM
O=[N+]([O-])/C(Cl)=C/C(=C1/Nc2ccccc2O1)[N+](=O)[O-]		41.6 µM	32.3 µM	57.5 µM	28.7 µM	63.7 µM	28 µM	53.6 µM	54.4 µM	76.4 µM	> 100 µM	45.5 µM	40.5 µM	45.9 µM					
Cc1cc2c(cc1Cl)SC(NNC1=NCCN1)=NS2(=O)=O	> 10 µM	> 10 µM	> 10 µM	> 10 µM	> 10 µM		> 10 µM	> 10 µM	> 10 µM	> 10 µM	> 10 µM	> 10 µM	> 10 µM	> 10 µM					
C=CC1(c2ccc3ccccc3c2)OCC(CC)O1 (stereo not given)	43.9 µM	> 100 µM	> 100 µM	> 100 µM	> 100 µM	75.2 µM	> 100 µM	73.7 µM	> 100 µM	0.469 µM	91.2 µM	> 100 µM	> 100 µM						
O=C1CC2CC(CC3(CO3)C2)C1F (stereo not given)	> 100 µM	> 100 µM	> 100 µM		> 100 µM	> 100 µM	> 100 µM	> 100 µM	> 100 µM	> 100 µM	> 100 µM	> 100 µM	> 100 µM	> 100 µM					
CC1=N[C@@](C)(C2CC3C=CC2C3=O)COC1=O (stereo not given in full)		> 100 µM	> 100 µM	> 100 µM	> 100 µM	> 100 µM	> 100 µM	> 100 µM	> 100 µM	> 100 µM	> 100 µM	> 100 µM	> 100 µM	> 100 µM					
CC(=O)Nc1cc2nc3n(c2cc1C)CCC3OC(C)=O (stereo not given)	> 100 µM	> 100 µM	> 100 µM	> 100 µM	> 100 µM	> 100 µM	> 100 µM	> 100 µM	> 100 µM	> 100 µM	> 100 µM	> 100 µM		> 100 µM					
CCOC(=O)C1(N)CC1		> 100 µM	> 100 µM	> 100 µM	> 100 µM	> 100 µM	> 100 µM	> 100 µM	> 100 µM	> 100 µM	> 100 µM	> 100 µM	> 100 µM	> 100 µM					
COC(=O)[C@]12CSC[C@H]1C[C@H](c1cccc3ccccc13)N2	> 100 µM	> 100 µM	> 100 µM	> 100 µM	> 100 µM	> 100 µM	> 100 µM	> 100 µM		> 100 µM		> 100 µM	> 100 µM	> 100 µM					
CN1CCN(Cc2nc3c(s2)CCc2sccc2-3)CC1	> 100 µM	> 100 µM	> 100 µM	> 100 µM	> 100 µM		> 100 µM	> 100 µM	> 100 µM	> 100 µM	> 100 µM	> 100 µM	> 100 µM	> 100 µM					
O=c1[nH]nc(Cc2ccccc2)n1/N=C/c1ccc([N+](=O)[O-])cc1	> 100 µM	> 100 µM	> 100 µM	> 100 µM	> 100 µM	> 100 µM	> 100 µM	> 100 µM	> 100 µM	> 100 µM	> 100 µM		> 100 µM	> 100 µM					
O=C1[C@@H](O)[C@@H]2CCCC[C@@]23CCCN13	> 100 µM	> 100 µM	> 100 µM		> 100 µM	> 100 µM	> 100 µM	> 100 µM	> 100 µM	> 100 µM	> 100 µM	> 100 µM	> 100 µM	> 100 µM					
O=C(NCCCN(CCCCN(CCCNC(=O)c1cc(S(=O)(=O)O)cc(O)c1O)C(=O)c1cc(S(=O)(=O)O)cc(O)c1O)C(=O)c1cc(S(=O)(=O)O)cc(O)c1O)c1cc(S(=O)(=O)O)cc(O)c1O	> 100 µM	> 100 µM	> 100 µM		> 100 µM	> 100 µM	> 100 µM	> 100 µM	> 100 µM	> 100 µM	> 100 µM	> 100 µM	> 100 µM	> 100 µM					
COc1ccc2c(c1OC)C(=O)N/C2=C\c1c(CCN(C)C)cc2c(c1OC)OCO2		> 100 µM	> 100 µM	> 100 µM	> 100 µM	> 100 µM	> 100 µM	> 100 µM	> 100 µM	> 100 µM	> 100 µM	> 100 µM	> 100 µM						
C#CCOCn1cc(C)c(=O)[nH]c1=O	> 100 µM	> 100 µM	> 100 µM		> 100 µM		> 100 µM	> 100 µM	> 100 µM	> 100 µM	> 100 µM	> 100 µM	> 100 µM	> 100 µM					
CC(=O)n1[nH]c(=O)n(-c2ccccc2)c1=O	> 100 µM	> 100 µM	> 100 µM	> 100 µM	> 100 µM		> 100 µM	> 100 µM	> 100 µM	> 100 µM	> 100 µM	> 100 µM	> 100 µM	> 100 µM					
